# Source: patent US20260374773A1, “MULTI-CYCLIC IRAK AND FLT3 INHIBITING COMPOUNDS AND USES THEREOF” (CHILDREN'S HOSPITAL MEDICAL CENTER, priority 2022, published 2026)
# Biological target: T1, FLT3 (Homo sapiens, UniProt P36888)
# T1 sequence (P36888 27-993): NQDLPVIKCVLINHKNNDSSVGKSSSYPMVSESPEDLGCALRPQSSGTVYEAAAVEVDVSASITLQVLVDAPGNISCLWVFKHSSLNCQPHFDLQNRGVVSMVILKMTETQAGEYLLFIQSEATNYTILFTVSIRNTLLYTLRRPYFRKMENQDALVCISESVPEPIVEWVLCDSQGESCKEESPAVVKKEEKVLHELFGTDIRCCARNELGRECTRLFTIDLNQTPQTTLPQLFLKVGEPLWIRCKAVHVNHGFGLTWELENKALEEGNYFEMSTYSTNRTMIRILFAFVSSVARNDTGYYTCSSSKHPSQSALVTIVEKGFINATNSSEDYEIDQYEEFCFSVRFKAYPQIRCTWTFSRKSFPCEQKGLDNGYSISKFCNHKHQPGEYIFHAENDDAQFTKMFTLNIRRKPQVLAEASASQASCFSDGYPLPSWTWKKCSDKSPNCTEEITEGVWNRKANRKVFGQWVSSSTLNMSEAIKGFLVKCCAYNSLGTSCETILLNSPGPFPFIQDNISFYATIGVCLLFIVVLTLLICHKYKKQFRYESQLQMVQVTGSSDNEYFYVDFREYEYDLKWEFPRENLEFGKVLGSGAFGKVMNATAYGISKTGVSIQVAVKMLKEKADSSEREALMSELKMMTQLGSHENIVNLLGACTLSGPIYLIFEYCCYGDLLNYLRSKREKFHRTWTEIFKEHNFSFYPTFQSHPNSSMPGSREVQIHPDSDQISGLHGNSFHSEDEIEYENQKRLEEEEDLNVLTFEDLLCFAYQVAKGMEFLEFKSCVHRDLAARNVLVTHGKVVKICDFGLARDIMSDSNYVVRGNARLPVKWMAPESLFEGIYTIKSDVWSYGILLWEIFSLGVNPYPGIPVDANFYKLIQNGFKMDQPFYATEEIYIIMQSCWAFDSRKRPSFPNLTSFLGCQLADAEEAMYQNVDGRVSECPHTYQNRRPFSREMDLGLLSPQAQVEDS
# Test: NanoBRET target engagement assay in HEK-293 cells, FLT3
# Type: cell-based
# Settings: Table 14; live HEK-293 cells, 1 h
# Description: The NanoBRET assay measures kinase engagement in real time in the context of the intact cell. Unlike the previously described biochemical kinase assay methodology, the NanoBRET assay measures the binding and activity characteristics under equilibrium conditions using full-length kinases in the presence of cellular concentrations of ATP in live, uncompromised cells. As such, the assay provides a more relevant assessment of kinase potency and selectivity that would be expected to be observed in the native cellular environment, where potency is often considerably lower than that observed in the isolated biochemical assays (Vasta, J. D. et al., (2018) Cell Chem. Biol. 25, 206-214). The assay uses a Kinase-NanoLuc® fusion vector expressing a kinase protein to which a luciferase tag has been added, a cell-permeant fluorescent NanoBRET™ tracer, a NanoLuc® substrate, and an extracellular NanoLuc® inhibitor. Upon expression of the luciferase-tagged kinase, cells will produce a strong BRET signal only in the presence of the NanoBRET™ tracer. The extracellular NanoLuc® inhibitor ensures that the BRET signal observed emanates only from live cells. Because the BRET signal has tight distance constraints, addition of the test compound will decrease the BRET signal if the compound competes with the NanoBRET™ tracer for binding to the kinase domain. Under the appropriate tracer conditions established by the manufacturer, quantitative intracellular affinity and relative potency can then be determined using Mass Action model equations.
# HEK-293 cells were purchased from ATCC. FuGENEHD Transfection Reagent, Kinase-NanoLucfusion plasmids, Transfection Carrier DNA, NanoBRETTracers and dilution buffer, NanoBRETNano-Glo Substrate, Extracellular NanoLucInhibitor were obtained from Promega.
# Assays were conducted following Promega assay protocol with some modifications. HEK-293 Cells were transiently transfected with Kinase-NanoLucFusion Vector DNA by FuGENEHD Transfection Reagent. Testing compounds were delivered into 384 well assay plate by Echo 550 (LabcyteInc, Sunnyvale, CA). Transfected cells were harvested and mixed with NanoBRETTracer Reagent and dispensed into 384 well plates and incubated at 37 °C in 5% CO2 cell culture incubator for 1 hour. The NanoBRETNano-Glo Substrate plus Extracellular NanoLucInhibitor Solution were added into the wells of the assay plate and incubated for 2-3 minutes at room temperature. The donor emission wavelength (460 nm) and acceptor emission wavelength (600 nm) were measured in the En Visionplate reader. The BRET Ratios were calculated.
# BRET Ratio=[(Acceptor sample÷Donor sample)−(Acceptor no-tracer control÷Donor no-tracer control)].
# The IC50 values of compounds were calculated with Prism GraphPad program.
# • 1). Cultivate HEK-293 cells (70-80% confluence) appropriately prior to assay. Trypsinize and collect HEK-293 cells. • 2). Prepare lipid:DNA complexes as follows: • a. Prepare a 10 μg/ml solution of DNA in Opti-MEM without serum that consists of the following ratios of carrier DNA and DNA encoding NanoLuc® fusion. 9.0 μg/mL of Transfection Carrier DNA, 1.0 μg/mL of NanoLuc fusion vector DNA and 1 mL of Opti-MEM without phenol red. Mix thoroughly. • b. Add 30 μl of FuGENE HD Transfection Reagent into each milliliter of DNA mixture to form lipid:DNA complex. • c. Mix by inversion 10 times. • d. Incubate at ambient temperature for 20 minutes to allow complexes to form. • 3). In a sterile, conical tube, mix 1 part of lipid:DNA complex with 20 parts of HEK-293 cells in suspension. Mix gently by inversion 5 times. • 4). Dispense cells+lipid:DNA complex into a sterile tissue culture dish and incubate for 22-24 hours.
# Each test compound is delivered from the compound source plate to the wells of 384-well white NBS plate by Echo 550.
# 3. Preparation of Cells with NanoBRET™ Tracer Reagent • 1). Remove medium from dish with transfected HEK-293 cells via aspiration, trypsinize and allow cells to dissociate from the dish. • 2). […]
row,Structure (SMILES),IC50 [nM]
1,"COc1cn2ncc(-c3ccc(F)c(N[C@@H]4CCCNC4)n3)c2nc1C1CC1 [Compound 5, (R)-6-(5-cyclopropyl-6-methoxypyrazolo[1,5-a]pyrimidin-3-yl)-3-fluoro-N-(piperidin-3-yl)pyridin-2-amine]",9
2,"COc1cn2ncc(-c3ccc(F)c(N[C@H]4CNCC[C@@H]4F)n3)c2nc1C1CC1 [Compound 6, 6-(5-cyclopropyl-6-methoxypyrazolo[1,5-a]pyrimidin-3-yl)-3-fluoro-N-((3S,4S)-4-fluoropiperidin-3-yl)pyridin-2-amine]",< 0.5
3,"COc1cn2ncc(-c3nc(N[C@H]4CNCC[C@@H]4F)ccc3F)c2nc1C1CC1 [Compound 3, 6-(5-cyclopropyl-6-methoxypyrazolo[1,5-a]pyrimidin-3-yl)-5-fluoro-N-((3S,4S)-4-fluoropiperidin-3-yl)pyridin-2-amine]",< 0.5

# Now from value to compound:
row,IC50 [nM],Structure (SMILES)
1,< 0.5,"COc1cn2ncc(-c3nc(N[C@H]4CNCC[C@@H]4F)c(F)cc3F)c2nc1C1CC1 [Compound 22, 6-(5-cyclopropyl-6-methoxypyrazolo[1,5-a]pyrimidin-3-yl)-3,5-difluoro-N-((3S,4S)-4-fluoropiperidin-3-yl)pyridin-2-amine]"
2,5,"COc1cn2ncc(-c3nc(N[C@@H]4CCCNC4)c(F)cc3F)c2nc1C(C)(C)O [Compound 11, (R)-2-(3-(3,5-difluoro-6-(piperidin-3-ylamino)pyridin-2-yl)-6-methoxypyrazolo[1,5-a]pyrimidin-5-yl)propan-2-ol]"
3,0.6,"COc1cn2ncc(-c3cccc(N[C@H]4CNCC[C@@H]4F)n3)c2nc1C1CC1 [Compound 21, 6-(5-cyclopropyl-6-methoxypyrazolo[1,5-a]pyrimidin-3-yl)-N-((3S,4S)-4-fluoropiperidin-3-yl)pyridin-2-amine]"
4,321,"COc1cn2ncc(-c3nc(N[C@H]4CNC[C@@H]4F)c(F)cc3F)c2nc1C(C)(C)O [Compound 12, 2-(3-(3,5-difluoro-6-(((3S,4S)-4-fluoropyrrolidin-3-yl)amino)pyridin-2-yl)-6-methoxypyrazolo[1,5-a]pyrimidin-5-yl)propan-2-ol]"
5,4,"COc1cn2ncc(-c3nc(N[C@H]4CNCC[C@@H]4F)c(F)cc3F)c2nc1C(C)(C)O [Compound 13, 2-(3-(3,5-difluoro-6-(((3S,4S)-4-fluoropiperidin-3-yl)amino)pyridin-2-yl)-6-methoxypyrazolo[1,5-a]pyrimidin-5-yl)propan-2-ol]"

# Same assay, conditions: Table 20; live HEK-293 cells, 1 h
row,Structure (SMILES),IC50 [nM]
1,"COc1cn2ncc(-c3ccnc(N[C@H]4CNCC[C@@H]4F)n3)c2nc1C(C)(C)O [Compound 3a, 2-(3-(2-(((3S,4S)-4-fluoropiperidin-3-yl)amino)pyrimidin-4-yl)-6-methoxypyrazolo[1,5-a]pyrimidin-5-yl)propan-2-ol]",1510
2,"COc1cn2ncc(-c3nc(N[C@H]4CNC[C@@H]4F)ncc3F)c2nc1C(C)(C)O [Compound 5a, 2-(3-(5-fluoro-2-(((3S,4S)-4-fluoropyrrolidin-3-yl)amino)pyrimidin-4-yl)-6-methoxypyrazolo[1,5-a]pyrimidin-5-yl)propan-2-ol]",113
3,"COc1cn2ncc(-c3nc(N[C@H]4CNCC[C@@H]4F)ncc3F)c2nc1C(C)(C)O [Compound 6a, 2-(3-(5-fluoro-2-(((3S,4S)-4-fluoropiperidin-3-yl)amino)pyrimidin-4-yl)-6-methoxypyrazolo[1,5-a]pyrimidin-5-yl)propan-2-ol]",12
4,"COc1cn2ncc(-c3ccnc(N[C@H]4CNCC[C@@H]4F)n3)c2nc1C1CC1 [Compound 7a, 4-(5-cyclopropyl-6-methoxypyrazolo[1,5-a]pyrimidin-3-yl)-N-((3S,4S)-4-fluoropiperidin-3-yl)pyrimidin-2-amine]",9
5,"COc1cn2ncc(-c3nc(N[C@@H]4CCCNC4)ncc3F)c2nc1C(C)(C)O [Compound 4a, (R)-2-(3-(5-fluoro-2-(piperidin-3-ylamino)pyrimidin-4-yl)-6-methoxypyrazolo[1,5-a]pyrimidin-5-yl)propan-2-ol]",52

# Continued, values first:
row,IC50 [nM],Structure (SMILES)
1,1,"COc1cn2ncc(-c3cncc(N[C@H]4CNCC[C@@H]4F)n3)c2nc1C1CC1 [Compound 12a, 6-(5-cyclopropyl-6-methoxypyrazolo[1,5-a]pyrimidin-3-yl)-N-((3S,4S)-4-fluoropiperidin-3-yl)pyrazin-2-amine]"
2,2,"COc1cn2ncc(-c3cncc(N[C@@H]4CCCNC4)n3)c2nc1C1CC1 [Compound 11a, (R)-6-(5-cyclopropyl-6-methoxypyrazolo[1,5-a]pyrimidin-3-yl)-N-(piperidin-3-yl)pyrazin-2-amine]"
3,2,"COc1cn2ncc(-c3nc(N[C@H]4CNCC[C@@H]4F)ncc3F)c2nc1C1CC1 [Compound 15a, 4-(5-cyclopropyl-6-methoxypyrazolo[1,5-a]pyrimidin-3-yl)-5-fluoro-N-((3S,4S)-4-fluoropiperidin-3-yl)pyrimidin-2-amine]"
4,11,"COc1cn2ncc(-c3ccnc(N[C@H]4CNC[C@@H]4F)n3)c2nc1C1CC1 [Compound 8a, 4-(5-cyclopropyl-6-methoxypyrazolo[1,5-a]pyrimidin-3-yl)-N-((3S,4S)-4-fluoropyrrolidin-3-yl)pyrimidin-2-amine]"
5,< 0.5,"COc1cn2ncc(-c3nc(N[C@@H]4CCCNC4)ncc3F)c2nc1C1CC1 [Compound 14a, (R)-4-(5-cyclopropyl-6-methoxypyrazolo[1,5-a]pyrimidin-3-yl)-5-fluoro-N-(piperidin-3-yl)pyrimidin-2-amine]"
6,0.5,"COc1cn2ncc(-c3nc(N[C@H]4CNC[C@@H]4F)ncc3F)c2nc1C1CC1 [Compound 13a, 4-(5-cyclopropyl-6-methoxypyrazolo[1,5-a]pyrimidin-3-yl)-5-fluoro-N-((3S,4S)-4-fluoropyrrolidin-3-yl)pyrimidin-2-amine]"
